Legend:
Format in all cases: functional
INS1 [1] = assay: Insulinotropic activity in Rattus norvegicus (rat) INS-1 cells assessed as increase of glucose-induced insulin release at 0.01 mg/ml after 90 min by radioimmunoassay relative to 5.6 mM of glucose
INS1 [2] = assay: Insulinotropic activity in Rattus norvegicus (rat) INS-1 cells assessed as increase of glucose-induced insulin release at 0.001 mg/ml after 90 min by radioimmunoassay relative to 5.6 mM of glucose
INS1 [3] = assay: Insulinotropic activity in Rattus norvegicus (rat) INS-1 cells assessed as increase of glucose-induced insulin release at 3 mM after 90 min by radioimmunoassay relative to 5.6 mM of glucose

Row | SMILES | Activity (INS1 [1]) [%] | Activity (INS1 [2]) [%] | Activity (INS1 [3]) [%]
1 | Cc1cc(C)c2occ(/C=C3/SC(=O)NC3=O)c(=O)c2c1 | 84.64 | 85.89 | –
2 | O=C(O)CN1C(=O)S/C(=C/c2coc3ccc([N+](=O)[O-])cc3c2=O)C1=O | 111 | 107.8 | –
3 | COc1ccc(Cl)cc1C(=O)NCCc1ccc(S(=O)(=O)NC(=O)NC2CCCCC2)cc1 [GLYBURIDE] | – | 179.6 | –
4 | Cc1cc(C)c2occ(/C=C3/SC(=O)N(CC(=O)O)C3=O)c(=O)c2c1 | 131.6 | 102.8 | –
5 | CC(C)c1ccc2occ(/C=C3/SC(=O)N(CC(=O)O)C3=O)c(=O)c2c1 | 144.3 | 125.6 | –
6 | CCOC(=O)CN1C(=O)S/C(=C/c2coc3ccccc3c2=O)C1=O | 65.53 | 83.15 | –
7 | Cc1ccc2occ(/C=C3/SC(=O)NC3=O)c(=O)c2c1 | 75.61 | 90.53 | –
8 | CCOC(=O)CN1C(=O)S/C(=C/c2coc3ccc([N+](=O)[O-])cc3c2=O)C1=O | 74.1 | 98.8 | –
9 | O=C1NC(=O)/C(=C\c2coc3ccc([N+](=O)[O-])cc3c2=O)S1 | 69.2 | 81.44 | –
10 | CCOC(=O)CN1C(=O)S/C(=C/c2coc3c(C)cc(C)cc3c2=O)C1=O | 154.4 | 138 | –
11 | CCOC(=O)CN1C(=O)S/C(=C/c2coc3ccc(C)cc3c2=O)C1=O | 177.7 | 153.1 | –
12 | O=C(O)CN1C(=O)S/C(=C/c2coc3ccccc3c2=O)C1=O | 121 | 117.2 | –
13 | O=C1NC(=O)/C(=C\c2coc3ccccc3c2=O)S1 | 63.57 | 83.98 | –
14 | OC[C@H]1OC(O)[C@H](O)[C@@H](O)[C@@H]1O (some centres not stated) [DEXTROSE] | – | – | 73
15 | CC(C)c1ccc2occ(/C=C3/SC(=O)NC3=O)c(=O)c2c1 | 81.55 | 89.46 | –
16 | CCOC(=O)CN1C(=O)S/C(=C/c2coc3ccc(C(C)C)cc3c2=O)C1=O | 180.5 | 138.5 | –
17 | Cc1ccc2occ(/C=C3/SC(=O)N(CC(=O)O)C3=O)c(=O)c2c1 | 120.7 | 102.2 | –
